We go through 21 molecules from patent US12685735B2 (Foghorn Therapeutics Inc., priority 2020, dated 2026).

One assay concerns the target BRM (Homo sapiens, UniProt P51531). Briefly: ATPase catalytic activity assay of BRM (ADP-Glo). The assay is classed as biochemical. Conditions: for IC50: read-out: BRM IC50 (μM)*. Put shortly: (§1)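 Measurement is luminescence, reflecting ADP produced by ATPase turnover. The two-step ADP-Glo detection consists of ATP depletion for 40 min and ADP-to-ATP conversion with luciferase for 60 min, both at room temperature.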
A general note: In ADP-Glo the light output rises with the ADP produced.

The next assay deals with BRG-1 (Homo sapiens, UniProt P51532). Kind of assay: ATPase catalytic activity assay of BRG-1 (ADP-Glo). The assay is classed as biochemical. To be noted: ATPase catalytic activity, ADP-Glo; for IC50: read-out: BRG1 IC50 (μM)*; for Emax: read-out: BRG1 Max % Inhibition. A digest of the protocol:
as §1

Where two headings read alike, the source gives them in different places. A value given as a limit tells only on which side of the number the result lay.

Chain of BRG-1 (P51532 whole entry): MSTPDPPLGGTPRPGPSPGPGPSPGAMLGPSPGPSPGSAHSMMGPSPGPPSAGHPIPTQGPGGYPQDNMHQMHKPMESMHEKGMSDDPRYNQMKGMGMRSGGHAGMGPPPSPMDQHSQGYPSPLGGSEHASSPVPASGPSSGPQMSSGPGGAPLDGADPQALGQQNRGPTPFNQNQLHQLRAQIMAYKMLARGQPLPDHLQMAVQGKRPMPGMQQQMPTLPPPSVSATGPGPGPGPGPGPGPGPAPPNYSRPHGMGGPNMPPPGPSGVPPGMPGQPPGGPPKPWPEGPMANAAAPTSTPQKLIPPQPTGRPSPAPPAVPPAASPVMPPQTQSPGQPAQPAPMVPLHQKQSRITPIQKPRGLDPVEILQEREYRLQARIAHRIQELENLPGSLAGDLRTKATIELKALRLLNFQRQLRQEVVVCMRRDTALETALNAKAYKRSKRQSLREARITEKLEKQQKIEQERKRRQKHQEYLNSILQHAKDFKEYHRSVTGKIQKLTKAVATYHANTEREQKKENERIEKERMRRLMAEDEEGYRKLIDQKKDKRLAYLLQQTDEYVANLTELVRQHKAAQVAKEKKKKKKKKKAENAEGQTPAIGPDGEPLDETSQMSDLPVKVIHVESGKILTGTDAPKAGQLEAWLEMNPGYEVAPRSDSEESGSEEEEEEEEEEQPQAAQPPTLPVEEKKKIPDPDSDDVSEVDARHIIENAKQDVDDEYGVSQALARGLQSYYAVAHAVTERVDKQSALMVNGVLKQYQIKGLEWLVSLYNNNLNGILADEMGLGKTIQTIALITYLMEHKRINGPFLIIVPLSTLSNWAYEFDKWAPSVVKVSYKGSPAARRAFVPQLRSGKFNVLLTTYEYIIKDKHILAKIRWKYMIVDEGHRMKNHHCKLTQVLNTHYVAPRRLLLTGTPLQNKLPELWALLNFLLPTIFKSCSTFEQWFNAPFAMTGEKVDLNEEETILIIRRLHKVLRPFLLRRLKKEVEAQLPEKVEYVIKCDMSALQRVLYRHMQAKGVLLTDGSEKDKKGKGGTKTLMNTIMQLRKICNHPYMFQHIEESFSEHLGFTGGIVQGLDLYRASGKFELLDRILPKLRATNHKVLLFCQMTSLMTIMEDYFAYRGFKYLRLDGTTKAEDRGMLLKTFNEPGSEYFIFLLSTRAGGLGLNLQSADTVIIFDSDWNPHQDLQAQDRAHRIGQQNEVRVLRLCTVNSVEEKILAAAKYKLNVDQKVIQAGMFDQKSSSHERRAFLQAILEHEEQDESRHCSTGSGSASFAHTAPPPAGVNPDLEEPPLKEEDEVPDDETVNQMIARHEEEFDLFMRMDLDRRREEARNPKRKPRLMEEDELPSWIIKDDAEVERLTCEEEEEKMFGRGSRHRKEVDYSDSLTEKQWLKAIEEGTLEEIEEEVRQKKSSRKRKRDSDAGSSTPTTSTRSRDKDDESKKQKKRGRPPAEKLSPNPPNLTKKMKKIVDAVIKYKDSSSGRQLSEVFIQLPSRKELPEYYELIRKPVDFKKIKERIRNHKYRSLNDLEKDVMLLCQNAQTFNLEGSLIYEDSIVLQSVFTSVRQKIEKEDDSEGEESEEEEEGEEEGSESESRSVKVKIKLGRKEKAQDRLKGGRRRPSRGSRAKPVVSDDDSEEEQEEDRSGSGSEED
Chain of BRM (P51531 whole entry): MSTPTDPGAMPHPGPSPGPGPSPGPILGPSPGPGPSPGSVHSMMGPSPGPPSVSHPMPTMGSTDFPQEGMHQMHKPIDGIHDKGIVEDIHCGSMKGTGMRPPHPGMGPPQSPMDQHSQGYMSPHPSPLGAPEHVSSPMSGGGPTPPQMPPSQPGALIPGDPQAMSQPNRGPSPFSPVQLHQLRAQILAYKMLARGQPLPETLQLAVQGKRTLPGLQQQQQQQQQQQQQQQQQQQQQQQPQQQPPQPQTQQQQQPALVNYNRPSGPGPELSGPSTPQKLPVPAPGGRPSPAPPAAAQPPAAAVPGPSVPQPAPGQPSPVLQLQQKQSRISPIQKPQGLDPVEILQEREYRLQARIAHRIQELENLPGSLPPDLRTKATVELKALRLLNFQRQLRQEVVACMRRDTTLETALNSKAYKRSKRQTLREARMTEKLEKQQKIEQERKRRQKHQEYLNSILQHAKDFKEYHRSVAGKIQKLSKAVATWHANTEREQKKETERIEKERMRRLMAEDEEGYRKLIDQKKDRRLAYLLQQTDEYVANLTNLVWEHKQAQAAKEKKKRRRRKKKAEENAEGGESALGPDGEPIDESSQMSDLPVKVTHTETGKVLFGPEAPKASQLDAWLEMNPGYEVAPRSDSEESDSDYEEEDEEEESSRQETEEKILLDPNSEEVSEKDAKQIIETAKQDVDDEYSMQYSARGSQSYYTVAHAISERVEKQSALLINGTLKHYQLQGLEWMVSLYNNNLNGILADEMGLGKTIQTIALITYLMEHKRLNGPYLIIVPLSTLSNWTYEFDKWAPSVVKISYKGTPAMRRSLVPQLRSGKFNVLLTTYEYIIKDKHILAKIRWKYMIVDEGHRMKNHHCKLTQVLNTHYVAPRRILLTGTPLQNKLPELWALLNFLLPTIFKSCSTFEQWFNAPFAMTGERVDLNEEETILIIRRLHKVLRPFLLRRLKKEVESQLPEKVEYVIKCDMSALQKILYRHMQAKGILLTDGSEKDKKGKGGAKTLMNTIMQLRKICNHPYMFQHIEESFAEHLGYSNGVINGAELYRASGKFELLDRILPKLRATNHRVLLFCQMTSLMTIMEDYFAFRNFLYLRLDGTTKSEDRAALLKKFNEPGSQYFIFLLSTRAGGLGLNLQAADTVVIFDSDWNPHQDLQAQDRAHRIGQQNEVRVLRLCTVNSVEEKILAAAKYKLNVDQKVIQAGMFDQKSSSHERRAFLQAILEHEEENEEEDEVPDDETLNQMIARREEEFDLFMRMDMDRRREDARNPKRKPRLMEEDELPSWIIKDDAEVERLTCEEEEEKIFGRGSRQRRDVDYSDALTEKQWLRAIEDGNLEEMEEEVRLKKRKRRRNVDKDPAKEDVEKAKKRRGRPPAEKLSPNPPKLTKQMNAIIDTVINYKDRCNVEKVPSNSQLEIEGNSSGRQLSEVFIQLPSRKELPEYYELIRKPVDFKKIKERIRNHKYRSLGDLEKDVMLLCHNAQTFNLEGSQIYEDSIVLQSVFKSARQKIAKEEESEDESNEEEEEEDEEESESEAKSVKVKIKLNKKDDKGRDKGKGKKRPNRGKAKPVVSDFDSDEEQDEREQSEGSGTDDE

On to `CC(C)S(=O)(=O)c1cccc(C(=O)NCC(=O)Nc2nc(-c3cccc(-c4cccc(C#N)c4)c3)cs2)c1` [Compound 24, N-(2-((4-(3′-cyano-[1,1′-biphenyl]-3-yl)thiazol-2-yl)amino)-2-oxoethyl)-3-(isopropylsulfonyl)benzamide], for which, on BRM, the “BRM Max % Inhibition” value was >90% and the IC50 lay within 0.1 to 1 µM. In addition, at BRG-1, the half-maximal inhibitory concentration (IC50) lay in the range of 1 to 5 µM.

As for `CC1(CN)CCc2ccc(C(=O)NCC(=O)Nc3nc(-c4cccc(-c5ccncc5)c4)cs3)cc21` (centres unmarked) [Compound 101], on BRM, the “BRM Max % Inhibition” value is >90% and the IC50 is 0.1 to 1 µM. Moreover, at BRG-1, the IC50 was 1 to 5 µM and the Emax is > 70%.

Take `Cn1ccc2ccc(-c3csc(NC(=O)CNC(=O)c4ccc5c(c4)[C@@](C)(CO)CC5)n3)cc2c1=O` [Compound 181, (S)-3-(hydroxymethyl)-3-methyl-N-(2-((4-(2-methyl-1-oxo-1,2-dihydroisoquinolin-7-yl)thiazol-2-yl)amino)-2-oxoethyl)-2,3-dihydro-1H-indene-5-carboxamide]: at BRM, the “BRM Max % Inhibition” value is listed as >90% and the IC50 lay in the range of 0.1 to 1 µM. At BRG-1, the half-inhibitory concentration (IC50) fell in the range of 1 to 5 µM and the Emax is > 70%.

As for `C[C@@H]1CN(c2cccc(-c3csc(NC(=O)CNC(=O)c4ccc5c(c4)CCCOC5)n3)n2)C[C@H](C)O1` [Compound 296, N-(2-((4-(6-((cis)-2,6-dimethylmorpholino)pyridin-2-yl)thiazol-2-yl)amino)-2-oxoethyl)-1,3,4,5-tetrahydrobenzo[c]oxepine-7-carboxamide], at BRM, the “BRM Max % Inhibition” value was >95% and the IC50 is < 0.1 µM. Besides, on BRG-1, the IC50 is < 0.1 µM and the Emax was > 95%.

In the case of `C[C@@H]1CN(c2cccc(-c3csc(NC(=O)CNC(=O)c4cccc([C@@H]5COC[C@H]5O)c4)n3)c2)C[C@H](C)O1` [Compound 157, N-(2-((4-(3-((cis)-2,6-dimethylmorpholino)phenyl)thiazol-2-yl)amino)-2-oxoethyl)-3-((3R,4S)-4-hydroxytetrahydrofuran-3-yl)benzamide], at BRM, the “BRM Max % Inhibition” value is >70% and the concentration for half-maximal inhibition (IC50) lay within 0.1 to 1 µM. Further, at BRG-1, the IC50 was > 5 µM and the Emax is > 30%.

For `C[C@@H]1CN(c2cccc(-c3csc(NC(=O)CNC(=O)c4ccc5c(c4)[C@](C)(C#N)CCO5)n3)c2)C[C@H](C)O1` [Compound 172, (4R)-4-cyano-N-[2-[[4-[3-[(cis)-2,6-dimethylmorpholin-4-yl]phenyl]thiazol-2-yl]amino]-2-oxo-ethyl]-4-methyl-chromane-6-carboxamide], at BRM, the “BRM Max % Inhibition” value is given as >95% and the half-maximal inhibitory concentration (IC50) was < 0.1 µM. In addition, on BRG-1, the IC50 is < 0.1 µM and the Emax is > 95%.

Take `C[C@@H]1CN(c2cccc(-c3csc(NC(=O)CNC(=O)c4ccc5c(c4)C(O)(C(F)F)COC5)n3)c2)C[C@H](C)O1` (stereo partly drawn) [Compound 326, 4-(difluoromethyl)-N-(2-((4-(3-((cis)-2,6-dimethylmorpholino)phenyl)thiazol-2-yl)amino)-2-oxoethyl)-4-hydroxyisochromane-6-carboxamide]: at BRM, the “BRM Max % Inhibition” value is reported as >95% and the half-inhibitory concentration (IC50) is < 0.1 µM. Also, at BRG-1, the IC50 lay within 0.1 to 1 µM and the Emax is > 95%.

Regarding `Cc1cc(-c2cccc(-c3csc(NC(=O)CNC(=O)c4ccc5c(c4)[C@@](C)(CO)CCC5)n3)c2)cc(C)n1` [Compound 231, (S)-N-(2-((4-(3-(2,6-dimethylpyridin-4-yl)phenyl)thiazol-2-yl)amino)-2-oxoethyl)-8-(hydroxymethyl)-8-methyl-5,6,7,8-tetrahydronaphthalene-2-carboxamide], at BRM, the “BRM Max % Inhibition” value is recorded as >95% and the 50% inhibitory concentration (IC50) was < 0.1 µM. Besides, at BRG-1, the half-inhibitory concentration (IC50) lay in the range of 0.1 to 1 µM and the Emax is > 80%.

`C[C@@H]1CN(c2cccc(-c3csc(NC(=O)CNC(=O)c4ccc5c(c4)C(F)(C(F)F)COC5)n3)c2)C[C@H](C)O1` (stereo in doubt) [Compound 308, (S)-4-(difluoromethyl)-N-(2-((4-(3-((cis)-2,6-dimethylmorpholino)phenyl)thiazol-2-yl)amino)-2-oxoethyl)-4-fluoroisochromane-6-carboxamide]: at BRM, the “BRM Max % Inhibition” value was >95% and the IC50 is < 0.1 µM. Also, on BRG-1, the half-maximal inhibitory concentration (IC50) was < 0.1 µM and the Emax is > 95%.

Take `CCS1(=O)=NCc2ccc(C(=O)NCC(=O)Nc3nc(-c4cccc(N5C[C@@H](C)O[C@@H](C)C5)c4)cs3)cc21` (stereo partly drawn) [Compound 367, N-(2-((4-(3-((cis)-2,6-dimethylmorpholino)phenyl)thiazol-2-yl)amino)-2-oxoethyl)-1-ethyl-3H-1I4-benzo[d]isothiazole-6-carboxamide 1-oxide]: at BRM, the “BRM Max % Inhibition” value is on record as >85% and the IC50 was in the range of 0.1 to 1 µM. For the same molecule, at BRG-1, the IC50 fell in the range of 1 to 5 µM and the Emax was > 85%.

Take `C[C@@]1(F)COCc2ccc(C(=O)NCC(=O)Nc3nc(-c4cccc(N5CCC5)c4)cs3)cc21` [Compound 332, (S)-N-(2-((4-(3-(azetidin-1-yl)phenyl)thiazol-2-yl)amino)-2-oxoethyl)-4-fluoro-4-methylisochromane-6-carboxamide]: at BRM, the “BRM Max % Inhibition” value is listed as >95% and the IC50 was < 0.1 µM. Moreover, on BRG-1, the IC50 was < 0.1 µM and the Emax is > 95%.

For `C[C@@H]1CN(c2cccc(-c3csc(NC(=O)CNC(=O)c4ccc5c(c4)C(C)(C#N)OCC5)n3)n2)C[C@H](C)O1` (stereo partly drawn) [Compound 384, 1-cyano-N-(2-((4-(6-((cis)-2,6-dimethylmorpholino)pyridin-2-yl)thiazol-2-yl)amino)-2-oxoethyl)-1-methylisochromane-7-carboxamide], at BRM, the “BRM Max % Inhibition” value is listed as >90% and the IC50 was in the range of 0.1 to 1 µM. On BRG-1, the IC50 lay in the range of 1 to 5 µM and the Emax is > 90%.

As to `C[C@@]1(C#N)COCc2ccc(C(=O)NCC(=O)Nc3nc(-c4cccc(C(F)F)c4)cs3)cc21` [Compound 398, (R)-4-cyano-N-(2-((4-(3-(difluoromethyl)phenyl)thiazol-2-yl)amino)-2-oxoethyl)-4-methylisochromane-6-carboxamide], at BRM, the “BRM Max % Inhibition” value is >95% and the concentration for half-maximal inhibition (IC50) is < 0.1 µM. For the same molecule, at BRG-1, the IC50 is 0.1 to 1 µM and the Emax is > 95%.

As for `CO[C@H]1C[C@@](F)(c2cccc(C(=O)NCC(=O)Nc3nc(-c4cccc(N5C[C@@H](C)O[C@@H](C)C5)n4)cs3)c2)C1` [Compound 426, N-(2-((4-(6-((cis)-2,6-dimethylmorpholino)pyridin-2-yl)thiazol-2-yl)amino)-2-oxoethyl)-3-((cis)-1-fluoro-3-methoxycyclobutyl)benzamide], at BRM (30 nM BRM, 400 μM ATP), the “BRM Max % Inhibition” value is given as >95% and the IC50 fell in the range of 0.1 to 1 µM. Besides, at BRG-1 (30 nM BRG-1, 400 μM ATP), the IC50 is 1 to 5 µM and the Emax was > 95%.

In the case of `C[C@H](N)C(C)(C)c1cccc(C(=O)NCC(=O)Nc2nc(-c3cccc(-c4ccncc4)c3)cs2)c1` [Compound 91], on BRM, the “BRM Max % Inhibition” value is given as >50% and the IC50 fell in the range of 1 to 5 µM. Also, on BRG-1, the half-maximal inhibitory concentration (IC50) was > 5 µM and the Emax is > 30%.

`C[C@@H]1CN(c2cccc(-c3csc(NC(=O)CNC(=O)c4ccc5c(c4)[C@]4(CCO4)COC5)n3)n2)C[C@H](C)O1` [Compound 349, (R)-N-(2-((4-(6-((cis)-2,6-dimethylmorpholino)pyridin-2-yl)thiazol-2-yl)amino)-2-oxoethyl)spiro[isochromane-4,2′-oxetane]-6-carboxamide]: on BRM, the “BRM Max % Inhibition” value is >95% and the IC50 was < 0.1 µM. Moreover, at BRG-1, the half-inhibitory concentration (IC50) was 0.1 to 1 µM and the Emax was > 95%.

Consider `CC1(F)COCc2ccc(C(=O)NCC(=O)Nc3nc(-c4cccc(N5CCC5)c4)cs3)cc21` (centres unmarked) [Compound 356, N-(2-((4-(3-(azetidin-1-yl)phenyl)thiazol-2-yl)amino)-2-oxoethyl)-4-fluoro-4-methylisochromane-6-carboxamide], for which, on BRM, the “BRM Max % Inhibition” value is >95% and the IC50 is < 0.1 µM. Also, on BRG-1, the IC50 is 0.1 to 1 µM and the Emax was > 95%.

On to `CC(C)(O)c1cccc(C(=O)NCC(=O)Nc2nc(-c3cccc(-c4ccncc4)c3)cs2)c1` [Compound 77], for which, on BRM, the “BRM Max % Inhibition” value was >90% and the IC50 lay in the range of 0.1 to 1 µM. Also, on BRG-1, the IC50 fell in the range of 0.1 to 1 µM and the Emax is > 80%.

As for `CC1COCc2ccc(C(=O)NCC(=O)Nc3nc(-c4cccc(N5C[C@@H](C)O[C@@H](C)C5)n4)cs3)cc21` (stereo partly drawn) [Compound 346, N-(2-((4-(6-((cis)-2,6-dimethylmorpholino)pyridin-2-yl)thiazol-2-yl)amino)-2-oxoethyl)-4-methylisochromane-6-carboxamide], on BRM, the “BRM Max % Inhibition” value was >95% and the IC50 is < 0.1 µM. Further, at BRG-1, the IC50 was 0.1 to 1 µM and the Emax is > 95%.

Regarding `C[C@@H]1CN(c2cccc(-c3csc(NC(=O)CNC(=O)c4cccc5c4OCC[C@]5(C)CO)n3)c2)C[C@H](C)O1` [Compound 252, (S)-N-(2-((4-(3-((cis)-2,6-dimethylmorpholino)phenyl)thiazol-2-yl)amino)-2-oxoethyl)-4-(hydroxymethyl)-4-methylchroman-8-carboxamide], at BRM, the “BRM Max % Inhibition” value is on record as >60% and the half-maximal inhibitory concentration (IC50) lay in the range of 1 to 5 µM. Further, at BRG-1, the 50% inhibitory concentration (IC50) is > 5 µM and the Emax is > 30%.

Turning to `C[C@@H]1CN(c2cccc(-c3csc(NC(=O)CNC(=O)c4ccc5c(c4)[C@](C)(CO)CO5)n3)n2)C[C@H](C)O1` (single isomer, unassigned) [Compound 132], at BRM, the “BRM Max % Inhibition” value is recorded as >80% and the IC50 is 0.1 to 1 µM. In addition, at BRG-1, the IC50 is > 5 µM and the Emax was > 50%.

A word on the IC50: it is the midpoint of a concentration-inhibition curve.
